Test results taken from US11572590B2, “Methods for evaluating tumor cell spheroids using 3D microfluidic cell culture device” (Dana-Farber Cancer Institute, Inc., priority 2017, dated 2023).
Read-outs that look alike come from different tables or passages of the source.

Tests used:
Assay in all cases: SelectScreen Kinase Profiling, single point inhibition and IC50 for off-target kinases
Assay type in all cases: biochemical
off-target kinases [1] = target: off-target kinases (Homo sapiens, UniProt P07949, G691S); conditions: RET G691S, mutant y, LanthaScreen Binding
off-target kinases [2] = target: off-target kinases (Homo sapiens, UniProt Q13705); conditions: ACVR2B, LanthaScreen Binding
off-target kinases [3] = target: off-target kinases (Homo sapiens, UniProt Q5S007, I2020T); conditions: LRRK2 I2020T, ATP Km app, Adapta
off-target kinases [4] = target: T1, off-target kinases (Homo sapiens, UniProt O00329); conditions: PIK3CD/PIK3R1 (p110 delta/p85 alpha), Adapta, ATP Km app
T1 sequence (O00329 1-1044): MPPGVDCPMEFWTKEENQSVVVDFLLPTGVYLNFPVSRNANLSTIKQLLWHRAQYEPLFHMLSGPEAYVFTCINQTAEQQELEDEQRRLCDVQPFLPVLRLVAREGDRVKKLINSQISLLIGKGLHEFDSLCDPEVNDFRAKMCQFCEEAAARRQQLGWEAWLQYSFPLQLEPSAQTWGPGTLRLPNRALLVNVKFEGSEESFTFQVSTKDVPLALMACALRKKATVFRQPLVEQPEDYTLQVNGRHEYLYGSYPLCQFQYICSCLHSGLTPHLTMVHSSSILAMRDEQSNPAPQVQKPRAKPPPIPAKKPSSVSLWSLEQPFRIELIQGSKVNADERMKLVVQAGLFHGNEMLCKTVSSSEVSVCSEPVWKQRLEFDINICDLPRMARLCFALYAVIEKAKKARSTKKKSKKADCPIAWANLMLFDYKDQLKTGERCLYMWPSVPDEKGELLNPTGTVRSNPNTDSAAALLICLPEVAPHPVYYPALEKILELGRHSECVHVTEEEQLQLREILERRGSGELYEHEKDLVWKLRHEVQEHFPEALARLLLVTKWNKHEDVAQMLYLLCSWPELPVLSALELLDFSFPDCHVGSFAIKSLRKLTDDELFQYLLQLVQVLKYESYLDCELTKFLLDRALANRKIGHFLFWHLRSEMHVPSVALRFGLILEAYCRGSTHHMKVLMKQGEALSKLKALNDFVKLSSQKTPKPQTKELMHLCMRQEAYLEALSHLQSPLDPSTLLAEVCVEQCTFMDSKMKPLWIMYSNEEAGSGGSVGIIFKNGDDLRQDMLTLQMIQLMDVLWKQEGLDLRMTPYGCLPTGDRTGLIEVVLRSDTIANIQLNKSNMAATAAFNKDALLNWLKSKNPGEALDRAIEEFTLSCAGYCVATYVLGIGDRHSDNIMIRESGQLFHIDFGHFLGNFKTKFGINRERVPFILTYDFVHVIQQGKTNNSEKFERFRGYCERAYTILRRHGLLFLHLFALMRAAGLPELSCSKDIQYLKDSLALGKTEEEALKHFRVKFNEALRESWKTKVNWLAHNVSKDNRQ

off-target kinases [5] = target: off-target kinases (Homo sapiens, UniProt P36888); conditions: FLT3, ATP Km app, ZLYTE
off-target kinases [6] = target: off-target kinases (Homo sapiens, UniProt P10721); conditions: KIT, ZLYTE, ATP Km app

Chain of off-target kinases (Homo sapiens, UniProt Q5S007, I2020T) (Q5S007 whole entry I2020T): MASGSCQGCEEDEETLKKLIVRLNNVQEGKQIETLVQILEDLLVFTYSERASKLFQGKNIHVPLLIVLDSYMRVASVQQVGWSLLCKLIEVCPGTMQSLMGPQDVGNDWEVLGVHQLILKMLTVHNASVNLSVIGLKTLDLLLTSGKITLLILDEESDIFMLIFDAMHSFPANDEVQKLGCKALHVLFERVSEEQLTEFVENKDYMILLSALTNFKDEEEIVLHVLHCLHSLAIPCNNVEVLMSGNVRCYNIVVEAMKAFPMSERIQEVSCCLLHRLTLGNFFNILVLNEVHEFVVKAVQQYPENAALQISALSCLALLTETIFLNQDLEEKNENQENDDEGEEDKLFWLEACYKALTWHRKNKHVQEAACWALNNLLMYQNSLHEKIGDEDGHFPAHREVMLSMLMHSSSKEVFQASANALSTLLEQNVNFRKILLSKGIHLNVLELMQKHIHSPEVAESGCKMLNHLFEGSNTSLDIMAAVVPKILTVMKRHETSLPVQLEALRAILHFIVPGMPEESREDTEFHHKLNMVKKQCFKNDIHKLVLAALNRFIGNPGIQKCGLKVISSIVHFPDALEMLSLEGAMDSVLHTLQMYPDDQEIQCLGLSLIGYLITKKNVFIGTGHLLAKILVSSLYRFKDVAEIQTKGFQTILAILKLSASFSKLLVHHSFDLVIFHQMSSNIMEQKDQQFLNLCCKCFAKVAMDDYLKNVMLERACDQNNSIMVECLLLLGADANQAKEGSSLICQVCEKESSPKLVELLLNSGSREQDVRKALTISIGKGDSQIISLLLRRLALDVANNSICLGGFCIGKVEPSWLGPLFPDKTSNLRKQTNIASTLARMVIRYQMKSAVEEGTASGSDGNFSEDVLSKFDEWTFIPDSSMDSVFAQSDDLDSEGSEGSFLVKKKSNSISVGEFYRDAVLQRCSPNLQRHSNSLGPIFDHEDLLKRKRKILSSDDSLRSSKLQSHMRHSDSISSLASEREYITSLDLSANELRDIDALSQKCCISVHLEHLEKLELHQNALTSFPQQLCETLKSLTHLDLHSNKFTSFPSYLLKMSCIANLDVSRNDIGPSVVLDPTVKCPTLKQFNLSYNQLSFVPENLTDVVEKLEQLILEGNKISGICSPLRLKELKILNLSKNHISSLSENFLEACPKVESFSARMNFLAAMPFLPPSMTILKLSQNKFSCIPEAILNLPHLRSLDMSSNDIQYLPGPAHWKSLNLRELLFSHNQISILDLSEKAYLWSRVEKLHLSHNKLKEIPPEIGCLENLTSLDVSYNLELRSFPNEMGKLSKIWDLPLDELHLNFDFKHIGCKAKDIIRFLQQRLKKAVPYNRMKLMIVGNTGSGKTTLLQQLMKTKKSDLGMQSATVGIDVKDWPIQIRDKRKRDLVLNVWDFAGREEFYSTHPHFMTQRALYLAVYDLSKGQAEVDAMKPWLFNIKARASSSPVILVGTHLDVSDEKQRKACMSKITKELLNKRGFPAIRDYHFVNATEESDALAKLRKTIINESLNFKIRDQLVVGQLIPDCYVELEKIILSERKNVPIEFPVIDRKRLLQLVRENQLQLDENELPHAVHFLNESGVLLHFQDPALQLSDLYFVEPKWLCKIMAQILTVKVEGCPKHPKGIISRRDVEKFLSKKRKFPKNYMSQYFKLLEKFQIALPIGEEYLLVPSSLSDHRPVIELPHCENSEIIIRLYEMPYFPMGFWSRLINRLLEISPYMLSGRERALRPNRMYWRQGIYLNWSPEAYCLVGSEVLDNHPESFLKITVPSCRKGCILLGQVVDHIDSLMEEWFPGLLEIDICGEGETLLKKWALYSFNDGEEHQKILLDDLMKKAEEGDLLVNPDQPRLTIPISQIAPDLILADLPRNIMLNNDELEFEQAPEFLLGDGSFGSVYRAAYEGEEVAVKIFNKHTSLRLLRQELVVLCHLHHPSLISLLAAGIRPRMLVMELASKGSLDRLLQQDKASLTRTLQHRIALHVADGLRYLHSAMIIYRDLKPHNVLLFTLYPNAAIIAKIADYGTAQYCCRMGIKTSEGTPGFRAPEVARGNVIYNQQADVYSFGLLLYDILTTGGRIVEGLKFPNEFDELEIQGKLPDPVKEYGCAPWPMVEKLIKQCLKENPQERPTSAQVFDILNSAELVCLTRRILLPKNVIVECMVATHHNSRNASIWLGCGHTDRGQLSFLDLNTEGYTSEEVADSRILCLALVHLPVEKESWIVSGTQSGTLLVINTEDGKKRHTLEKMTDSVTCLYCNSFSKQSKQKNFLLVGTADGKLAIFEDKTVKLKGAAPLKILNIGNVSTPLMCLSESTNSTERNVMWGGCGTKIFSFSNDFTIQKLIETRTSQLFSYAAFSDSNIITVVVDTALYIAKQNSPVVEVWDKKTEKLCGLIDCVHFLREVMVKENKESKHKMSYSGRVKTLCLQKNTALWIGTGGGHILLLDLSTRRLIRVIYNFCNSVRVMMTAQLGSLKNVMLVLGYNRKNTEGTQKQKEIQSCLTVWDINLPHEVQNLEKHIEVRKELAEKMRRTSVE
Chain of off-target kinases (Homo sapiens, UniProt P36888) (P36888 27-993): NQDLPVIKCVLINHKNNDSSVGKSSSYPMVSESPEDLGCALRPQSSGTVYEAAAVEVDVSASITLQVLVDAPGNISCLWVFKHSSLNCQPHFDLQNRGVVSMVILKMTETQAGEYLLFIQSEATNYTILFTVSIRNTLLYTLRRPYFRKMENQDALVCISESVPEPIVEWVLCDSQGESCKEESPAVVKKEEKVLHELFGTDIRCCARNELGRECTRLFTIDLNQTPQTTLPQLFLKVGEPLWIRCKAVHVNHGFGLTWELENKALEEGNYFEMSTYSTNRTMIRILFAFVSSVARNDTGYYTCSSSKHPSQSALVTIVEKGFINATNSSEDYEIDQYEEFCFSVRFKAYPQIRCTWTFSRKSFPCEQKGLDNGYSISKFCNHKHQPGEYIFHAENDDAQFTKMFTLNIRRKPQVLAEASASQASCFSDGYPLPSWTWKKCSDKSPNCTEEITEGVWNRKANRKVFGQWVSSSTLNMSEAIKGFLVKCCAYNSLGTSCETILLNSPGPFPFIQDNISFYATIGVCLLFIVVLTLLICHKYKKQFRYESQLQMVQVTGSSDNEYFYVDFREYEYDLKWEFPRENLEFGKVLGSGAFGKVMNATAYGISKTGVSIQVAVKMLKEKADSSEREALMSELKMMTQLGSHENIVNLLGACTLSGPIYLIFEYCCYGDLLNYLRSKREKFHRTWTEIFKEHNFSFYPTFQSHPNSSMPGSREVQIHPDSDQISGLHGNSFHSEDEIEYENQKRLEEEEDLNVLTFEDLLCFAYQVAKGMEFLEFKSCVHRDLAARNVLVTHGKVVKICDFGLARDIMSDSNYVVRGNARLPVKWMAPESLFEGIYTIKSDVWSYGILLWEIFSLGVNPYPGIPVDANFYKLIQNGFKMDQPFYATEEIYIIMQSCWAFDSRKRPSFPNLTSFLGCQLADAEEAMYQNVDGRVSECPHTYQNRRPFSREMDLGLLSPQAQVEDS
Chain of off-target kinases (Homo sapiens, UniProt P07949, G691S) (P07949 29-1114 G691S): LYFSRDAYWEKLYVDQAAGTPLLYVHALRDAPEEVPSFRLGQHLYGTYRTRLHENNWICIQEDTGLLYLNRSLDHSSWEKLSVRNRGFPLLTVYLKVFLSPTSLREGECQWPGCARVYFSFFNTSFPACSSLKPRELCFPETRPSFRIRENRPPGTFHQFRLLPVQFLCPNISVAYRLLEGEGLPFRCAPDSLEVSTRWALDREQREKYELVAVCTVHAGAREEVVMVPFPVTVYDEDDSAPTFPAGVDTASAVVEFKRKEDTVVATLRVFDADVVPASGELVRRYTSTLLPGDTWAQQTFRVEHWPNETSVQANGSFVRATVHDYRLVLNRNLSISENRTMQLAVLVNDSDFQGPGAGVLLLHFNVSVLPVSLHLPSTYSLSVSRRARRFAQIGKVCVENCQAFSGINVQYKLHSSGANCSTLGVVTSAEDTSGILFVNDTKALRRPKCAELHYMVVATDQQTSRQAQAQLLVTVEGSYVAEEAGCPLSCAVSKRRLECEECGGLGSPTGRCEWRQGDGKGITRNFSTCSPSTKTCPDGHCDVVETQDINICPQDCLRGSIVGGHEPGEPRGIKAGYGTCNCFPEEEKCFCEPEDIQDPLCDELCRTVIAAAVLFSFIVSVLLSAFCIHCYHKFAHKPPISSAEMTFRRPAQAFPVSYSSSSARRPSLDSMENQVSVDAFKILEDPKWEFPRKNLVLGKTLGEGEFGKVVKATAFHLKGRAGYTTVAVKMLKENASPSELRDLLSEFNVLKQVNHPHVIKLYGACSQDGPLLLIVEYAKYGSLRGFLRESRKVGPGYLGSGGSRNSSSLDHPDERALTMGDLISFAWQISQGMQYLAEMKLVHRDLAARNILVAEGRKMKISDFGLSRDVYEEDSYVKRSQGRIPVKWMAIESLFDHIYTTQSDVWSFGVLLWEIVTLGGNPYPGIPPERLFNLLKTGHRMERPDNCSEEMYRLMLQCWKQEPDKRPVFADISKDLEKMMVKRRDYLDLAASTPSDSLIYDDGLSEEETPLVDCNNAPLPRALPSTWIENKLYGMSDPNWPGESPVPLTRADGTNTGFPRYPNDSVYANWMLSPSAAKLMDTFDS
Chain of off-target kinases (Homo sapiens, UniProt Q13705) (Q13705 19-512): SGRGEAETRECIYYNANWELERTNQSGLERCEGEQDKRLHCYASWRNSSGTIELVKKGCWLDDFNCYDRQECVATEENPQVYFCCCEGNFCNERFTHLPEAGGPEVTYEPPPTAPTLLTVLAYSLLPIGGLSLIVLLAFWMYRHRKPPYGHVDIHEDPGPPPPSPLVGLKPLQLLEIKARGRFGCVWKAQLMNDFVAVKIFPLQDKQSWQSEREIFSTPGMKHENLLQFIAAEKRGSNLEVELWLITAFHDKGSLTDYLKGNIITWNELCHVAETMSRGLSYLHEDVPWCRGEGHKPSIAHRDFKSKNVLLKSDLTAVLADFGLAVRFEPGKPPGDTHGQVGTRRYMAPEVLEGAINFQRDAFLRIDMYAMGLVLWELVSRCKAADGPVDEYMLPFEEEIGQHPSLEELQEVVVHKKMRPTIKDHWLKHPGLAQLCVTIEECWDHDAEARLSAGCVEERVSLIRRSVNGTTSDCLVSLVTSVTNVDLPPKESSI

`N#Cc1cc(-c2ncnc(Nc3ccc(N4CCN(C5COC5)CC4)cc3)n2)ccc1OC1CCOCC1` [Compound 1, 5-(4-((4-(4-(oxetan-3-yl)piperazin-1-yl)phenyl)amino)-1,3,5-triazin-2-yl)-2-((tetrahydro-2H-pyran-4-yl)oxy)benzonitrile] was tested, and the inhibition (off-target kinases [1]; read-out: % Inhibition 1) was 19%, the inhibition (off-target kinases [1]; read-out: % Inhibition 2) was 18% and the inhibition (off-target kinases [1]; read-out: % Inhibition Avg) was 18%. The inhibition (off-target kinases [2]; read-out: % Inhibition 1) was 27%, the inhibition (off-target kinases [2]; read-out: % Inhibition 2) was 31% and the inhibition (off-target kinases [2]; read-out: % Inhibition Avg) was 29%. For the same compound, the inhibition (off-target kinases [3]; read-out: % Inhibition 1) was 100%, the inhibition (off-target kinases [3]; read-out: % Inhibition 2) was 98% and the inhibition (off-target kinases [3]; read-out: % Inhibition Avg) was 99%. For the same compound, the inhibition (off-target kinases [4]; read-out: % Inhibition 1) was 22%, the inhibition (off-target kinases [4]; read-out: % Inhibition 2) was 9% and the inhibition (off-target kinases [4]; read-out: % Inhibition Avg) was 16%. It also gave an inhibition (off-target kinases [5]; read-out: % Inhibition 1) of 42%, an inhibition (off-target kinases [5]; read-out: % Inhibition 2) of 49% and an inhibition (off-target kinases [5]; read-out: % Inhibition Avg) of 45%. The inhibition (off-target kinases [6]; read-out: % Inhibition 1) was 1%, the inhibition (off-target kinases [6]; read-out: % Inhibition 2) was 5% and the inhibition (off-target kinases [6]; read-out: % Inhibition Avg) was 3%.
